“Also recorded” adds a separate entry of the source.
What was measured:
[1] = system: DIO male mice; assay: Oral glucose tolerance test, PATAD, metformin or both; details: PATAD injection, metformin daily oral gavage
[2] = system: AST (Aspartate Aminotransferase); assay: Plasma AST ELISA; assay type: in vivo, mouse; details: 3 months after a single subcutaneous injection, n=4
Description: (§1) Mean values of both AST and ALT measured by ELISA approach in plasma of mice with the indicated treatment. n=4 samples per group.
(§2) Mice presented in FIG. 1 were euthanized and their plasma and organs were sampled for analysis. […] Cryosection of the livers were then stained with Adipored and DAPI to detect the level of lipid droplets. […] Hepatic function is assessed by two liver related strong biomarkers namely (AST (Aspartate Aminotransferase) and ALT (Alanine Aminotransferase)), whose levels increase proportionately with liver damage.
(§3) Plasma samples from the indicated mice were used to determine plasma content of either AST (aspartate aminotransferase) or […] (alanine aminotransferase) both robust indicators of liver damage were measured using commercially purchased ELISA kits. These parameters were determined according to manufacturer's procedure.
SEB214Mu (96 Tests): Enzyme-linked Immunosorbent Assay Kit For Aspartate Aminotransferase (AST), Cloud Clone Corp

[3] = system: albumin; assay: Plasma free albumin determination; assay type: in vivo, mouse; details: 3 months after PATAD injection, N=5
Description: Lipids are transported bound to albumin and therefore plasma content of free albumin was measured as a readout of the effect of PATAD stapled peptide sequence A on circulating lipid profile 3 months after PATAD injection. N=5 mice per group.
A decreased circulating free albumin concentration has been observed when the mice were treated with PATAD stapled peptide sequence A indicating an increase in the levels of circulating lipids (FIG. 6).
(§4) For GLP-1 measurement, a commercially available kit was used. RayBio Human/Mouse/Rat GLP-1 Enzyme Immunoassay Kit, EIA-GLP1, RayBiotech were used with the indicated procedures from the manufacturer. For the plasma albumin level determination, a commercially available kit was used.

[4] = system: ALT (Alanine Aminotransferase); assay: Plasma ALT ELISA; assay type: in vivo, mouse; details: 3 months after a single subcutaneous injection, n=4
Description: as §1, §2, §3
SEA207Mu (96 Tests): Enzyme-linked Immunosorbent Assay Kit For Alanine Aminotransferase (ALT), Cloud Clone Corp

[5] = system: FATP2 (Fatty acid transport protein 2); assay: q-PCR expression of fatty acid transporters in adipose tissue; assay type: in vivo, mouse; details: high fat/high glucose diet male mice; 11 days post single injection; GAPDH reference gene
Text: n=4 animals per group, GAPDH was used as reference gene. There are 6 isoforms of FATP (FATP1-6 also known as SLC27A1-SLC27A6).
As PATAD subcutaneous injection relates to restoration of glucose absorption in the adipose tissue, the inventors measured the expression levels of all 6 isoforms for the FATPs (1-6) (Fatty acid transport protein 1-6) and the 4 isoforms of the FFAR (Free Fatty Acid Receptor) to assess any effect on these genes.
All peptides were initially dissolved in DMSO and then diluted in sterile saline solution at a concentration of 10 ng/μL. 2.5 μL of each peptide (stapled or scrambled) were mixed and then injected directly in the subcutaneaous adipose tissue in each mouse. […]
Total RNA was prepared from the different tissues and cells using a RiboPure™ kit (Catalog #: AM1924; Ambion) followed by a DNAse treatment with the TURBO DNA-Free™ (Catalog #: AM 1907; Ambion). RNA integrity was assessed by gel electrophoresis and RNA concentration by Eppendorf Biophotometer Plus with the Hellma® Tray Cell (Catalog #: 105.810-uvs; Hellma). […] Real-time quantitative polymerase chain reaction amplification was performed in a BioRad CFX96™ Real-Time System using the iQ™ SYBR® Green Supermix (Catalog #: 170-8886; BioRAd) and primer sets optimized for tested targets for SYBR Green-based real-time PCR for the real-time PCR. […]

[6] = system: GLP-1; assay: Circulating GLP-1 enzyme immunoassay; assay type: in vivo, mouse; details: plasma; 11 days post single injection
Description: FIG. 4: PATAD stapled peptide sequence A reduces FATP2 expression level in the adipose tissue and increases GLP-1 circulating levels • (A)4 month-old male mice fed with a high fat/high glucose diet were used in this set of experiment.
Mice were injected with a single dose of either scramble peptide or PATAD stapled peptide sequence A. 11 days post injection, the mice were euthanized, and plasma was obtained and used for determination of circulating GLP1 from mice with the indicated treatment.
as §4

Compound	onset of the effect on the GTT [1]	circulating AST level [2]	circulating free albumin concentration [3]	circulating ALT level [4]	FATP2 expression level in the adipose tissue [5]	circulating GLP-1 concentration [6]
CN(C)C(=N)N=C(N)N [metformin]	delayed by one week					
VE CTM-[2-(4-pentenyl) alanine]-EK RVL A-[2-(4-pentenyl)alanine]-L DKP PFL TQL HS [PATAD stapled peptide sequence A]		effective in reducing	decreased	effective in reducing	decreased; also recorded: reduces	restored high circulating levels; also recorded: restore GLP1 circulating levels back to lean controls

— US20200368314A1, “PEPTIDES FOR TREATMENT AND PREVENTION OF NONALCOHOLIC FATTY LIVER DISEASE” (UNIVERSITE DE STRASBOURG, priority 2017, published 2020)
